Measurements from patent publication US11944605B2, “Rapamycin analogs and uses thereof” (Janssen Pharmaceutica NV, priority 2018, dated 2024).
Values after ≈ are worked out from the molar mass of the structure shown. “Also recorded” adds a separate entry of the source.

Tests used:
[1] = system: pS6K1 (p-p70 S6 Kinase (Thr389)) in MCF-7 cells; experiment: AlphaLISA Ultra pS6K1 Assay; type: cell-based; settings: Homo sapiens, 1.5 h; MCF7 cells, 90 min
Method in brief: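 AlphaLISA Ultra read-out (acceptor beads 2 h, then donor beads 2 h) on thawed lysates of MCF-7 cells. Cells had 20–24 h after seeding and a 2 h medium change, then 90 min of compound exposure at 0.5% final DMSO, with lysates stored at −80 °C.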

[2] = system: pAKT (p-Akt 1/2/3 (Ser473)) in MCF-7 cells; experiment: AlphaLISA Ultra pAKT Assay; type: cell-based; settings: Homo sapiens, 1.5 h; MCF7 cells, 90 min
Protocol: AlphaLISA Ultra pAKT Assay
1. MCF-7 cells in Corning 3701 plate and incubate for 20˜24 hour.
16,000˜20,000 cells will be seeded in 36 μL medium per well.
2. Change the culture medium with fresh medium and incubate for another 90 minutes.
3. […]
4. Aspirate […] by HAMILTON, 10 μL rest per well.
5. Add 10 μL 2× lysis buffer using HAMILTON; total volume in wells is 20 μL. Allow cells to shake for 30 min. Cover plate by plastic foil and store plate at −80° C. up to analysis.
6. Thaw cell lysate at RT and transfer 10 ul lysate to assay plate (Optiplate-384).
7. Add 5 μL acceptor beads into assay plate and incubation for 2 hours
8. Add 5 μL donor beads and incubation for 2 hours
9. Count the plate by EnSpire Multimode Plate Reader

mTORC1 over mTORC2 = experiment: mTORC1 selectivity over mTORC2 at 24 hrs (Western blot based pS6K1 and pAKT assay); type: cell-based; settings: 24 hrs
[3] = Solubility in 100 mM phosphate buffer (pH 7.4); type: physicochemical; settings: pH 7.4, aqueous buffer
From the text: The compound numbers correspond to the compound numbers in Table 1.

[4] = system: mTORC1 pathway (pS6K1 T389) in PC3 cells; experiment: Western blot, mTORC1 pathway (pS6K1) in PC3 cells; type: cell-based; settings: PC3 cells, 24 hours
Protocol: (§1) Western Blot Based pS6K1 and pAKT Assay at 24 and 48 Hour Timepoints
(§2) 1. Seed six well plate with 500,000 PC3 cells per well and incubate for 20˜24 hour.
(§3) 2. Add compounds into the cell plate. Incubate for 24 to 48 hours.
(§4) 4. Plate is placed on ice and the media is removed via aspiration. The wells are washed with 1 mL of 1× PBS and then fully aspirated.
(§5) 5. 110 μL of 1% Triton Lysis Buffer is added and each well is scraped vigorously.
(§6) 6. Cell homogenates are transferred to 1.5 mL eppendorf tubes on ice and spun down at 4° C. for 10 minutes at 10,000 rpm.
(§7) 9. The membranes were washed 3× with TBS-T with a 5 minute incubation between each wash then incubated with secondary antibody (LiCor IRDye 800 Donkey Anti Rabbit) for at least 30 minutes.
(§8) 10. The membranes were washed 3× with TBS-T with a 5 minute incubation between each wash.
(§9) 11. The gels were then incubated for 5 minutes with PBS at room temperature then imaged using a Li-Cor.
(§10) The methods employed were substantially similar to those described above. Compounds were evaluated in PC3 cells, Jurkat cells, wild-type mouse embryotic fibroblast (MEF) cells, tuberous sclerosis 2 (TSC2) negative (TSC −/−) MEF cells, and tuberous sclerosis 2 (TSC2) positive (TSC +/+) MEF cells. Cells were incubated with compounds of the present invention for various time periods (e.g., 5 minutes, 15 minutes, 30 minutes, 90 minutes, 24 hours, or 48 hours), and evaluated according to known methodologies, such as those herein described.

[5] = system: mTORC2 pathway (Akt phosphorylation) in PC3 cells; experiment: Western blot, mTORC2 pathway (pAkt) in PC3 cells; type: cell-based; settings: 24 hours
Protocol: as §1, §2, §3, §4, §5, §6, §7, §8, §9, §10

[6] = system: 4E-BP1 phosphorylation in PC3 cells; experiment: Western blot, 4E-BP1 phosphorylation in PC3 cells; type: cell-based; settings: 24 hours

IC50 [1] [nM]	IC50 [2] [nM]	solubility [3] [µM]	Compound	mTORC1 selective @ 24 hrs (mTORC1 over mTORC2)	inhibition of the mTORC1 pathway [4]	inhibition of mTORC2 (Akt phosphorylation) [5]	inhibition of 4E-BP1 phosphorylation [6]
1 to 10	≥ 100	> 60	CO[C@@H]1C[C@H](C[C@@H](C)[C@@H]2CC(=O)[C@H](C)/C=C(\C)[C@@H](O)[C@@H](OC)C(=O)[C@H](C)C[C@H](C)/C=C/C=C/C=C(\C)C(OCCOCCOCCOCCOCCOCCO)C[C@@H]3CC[C@@H](C)[C@@](O)(O3)C(=O)C(=O)N3CCCC[C@H]3C(=O)O2)CC[C@H]1O (stereo partly drawn) [I-33, (21E,23E,25E,26E,40R,41S,42R,43R,45R,47S,50S,51R,52R, 61S)-51,6I-dihydroxy-49-[2-[2-[2-[2-[2-(2-hydroxyethoxy)ethoxy]ethoxy]ethoxy]ethoxy]ethoxy]-50-[(1S)-2-[(1S, 3R,4R)-4-hydroxy-3-methoxy-cyclohexyl]-1-methyl-ethyl]-52-methoxy-40, 41,42,43,53,54-hexamethyl-72,73-dioxa-62-azatricyclohexatriaconta-21, 23,25(53),26(54)-tetraene-55,56,57,58,59-pentone]	YES	–	–	–
0.1 to 1	≥ 100	30 to 60 (≈ 28.7 to 57.5 µg/mL)	CO[C@@H]1C[C@H](C[C@@H](C)[C@@H]2CC(=O)[C@H](C)/C=C(\C)[C@@H](O)[C@@H](OC)C(=O)[C@H](C)C[C@H](C)/C=C/C=C/C=C(\C)C(OCCCO)C[C@@H]3CC[C@@H](C)[C@@](O)(O3)C(=O)C(=O)N3CCCC[C@H]3C(=O)O2)CC[C@H]1O (stereo partly drawn) [I-34]	NO	–	–	–
1 to 10	≥ 100	30 to 60 (≈ 29.6 to 59.3 µg/mL)	CO[C@@H]1C[C@H](C[C@@H](C)[C@@H]2CC(=O)[C@H](C)/C=C(\C)[C@@H](O)[C@@H](OC)C(=O)[C@H](C)C[C@H](C)/C=C/C=C/C=C(\C)C(OCCOCCO)C[C@@H]3CC[C@@H](C)[C@@](O)(O3)C(=O)C(=O)N3CCCC[C@H]3C(=O)O2)CC[C@H]1O (stereo partly drawn) [I-37]	YES	–	–	–
< 0.1	≥ 100	30 to 60 (≈ 28.3 to 56.7 µg/mL)	CO[C@@H]1C[C@H](C[C@@H](C)[C@@H]2CC(=O)[C@H](C)/C=C(\C)[C@@H](O)[C@@H](OC)C(=O)[C@H](C)C[C@H](C)/C=C/C=C/C=C(\C)C(OCCO)C[C@@H]3CC[C@@H](C)[C@@](O)(O3)C(=O)C(=O)N3CCCC[C@H]3C(=O)O2)CC[C@H]1O (stereo partly drawn) [I-38, (21E,23E,25E,26E,30R,31S,32R,33R,35R,37S,40S,41R,42R,51S)-41, 51-dihydroxy-39-(2-hydroxyethoxy)-40-[(1S)-2-[(1S,3R,4R)-4-hydroxy-3-methoxy-cyclohexyl]-1-methyl-ethyl]-42-methoxy-30, 31,32,33,43,44-hexamethyl-62,63-dioxa-52-azatricyclohexatriaconta-21, 23,25(43),26(44)-tetraene-45,46,47,48,49-pentone]	NO	–	–	–
10 to 100	–	–	CO[C@@H]1C[C@H](C[C@@H](C)[C@@H]2CC(=O)[C@H](C)/C=C(\C)[C@@H](O)[C@@H](OC)C(=O)[C@H](C)C[C@H](C)/C=C/C=C/C=C(\C)C(OCCS(=O)(=O)CCS(=O)(=O)CCO)C[C@@H]3CC[C@@H](C)[C@@](O)(O3)C(=O)C(=O)N3CCCC[C@H]3C(=O)O2)CC[C@H]1O (stereo partly drawn) [I-102, (21E,23E,25E,26E,34R,35S,36R,37R,39R,41S,44S,45R,46R,55S)-45, 55-dihydroxy-43-[2-[2-(2-hydroxyethylsulfonyl)ethylsulfonyl]ethoxy]-44-[(1S)-2-[(1S,3R, 4R)-4-hydroxy-3-methoxy-cyclohexyl]-1-methyl-ethyl]-46-methoxy-34,35,36,37,47,48-hexamethyl-70, 71-dioxa-56-azatricyclohexatriaconta-21,23,25(47),26(48)-tetraene-49,50,51,52,53-pentone]	YES	strong inhibition	do not inhibit	no inhibition
0.1 to 1	–	–	CO[C@@H]1C[C@H](C[C@@H](C)[C@@H]2CC(=O)[C@H](C)/C=C(\C)[C@@H](O)[C@@H](OC)C(=O)[C@H](C)C[C@H](C)/C=C/C=C/C=C(\C)C(OCP(=O)(CO)CO)C[C@@H]3CC[C@@H](C)[C@@](O)(O3)C(=O)C(=O)N3CCCC[C@H]3C(=O)O2)CC[C@H]1O (stereo partly drawn) [I-106, (21E,23E,25E,26E,31R,32S,33R,34R,36S,38S,41S,42R,43R,52R)-40-[bis(hydroxymethyl)phosphorylmethoxy]-42,52-dihydroxy-4I-[(1R)-2-[(1S,3R,4R)-4-hydroxy-3-methoxy-cyclohexyl]-1-methyl-ethyl]-43-methoxy-31, 32,33,34,44,45-hexamethyl-65,66-dioxa-53-azatricyclohexatriaconta-21, 23,25(44),26(45)-tetraene-46,47,48,49,50-pentone]	YES	strong inhibition	do not inhibit	no inhibition
1 to 10	–	–	CO[C@@H]1C[C@H](C[C@@H](C)[C@@H]2CC(=O)[C@H](C)/C=C(\C)[C@@H](O)[C@@H](OC)C(=O)[C@H](C)C[C@H](C)/C=C/C=C/C=C(\C)C(OC[C@H]3CO[C@@H](CO)CO3)C[C@@H]3CC[C@@H](C)[C@@](O)(O3)C(=O)C(=O)N3CCCC[C@H]3C(=O)O2)CC[C@H]1O (stereo partly drawn) [I-118, (23E,25E,27E,28E,32R,33S,34R,35R,36S,39S,41S,45R,46R,55R)-45, 55-dihydroxy-41-[(1R)-2-[(1S,2R,3R)-3-hydroxy-2-methoxy-cyclohexyl]-1-methyl-ethyl]-40-[[(25, 5S)-5-(hydroxymethyl)-1,4-dioxan-2-yl]methoxy]-46-methoxy-32,33,34,35,47,48-hexamethyl-68, 69-dioxa-56-azatricyclohexatriaconta-23,25,27(47),28(48)-tetraene-49,50,51,52,53-pentone]	YES	moderate concentration dependent inhibition; also recorded: strong inhibition	do not inhibit	no inhibition

Compound	IC50 [1] [nM]	IC50 [2] [nM]	solubility [3] [µM]	mTORC1 selective @ 24 hrs (mTORC1 over mTORC2)	inhibition of the mTORC1 pathway [4]	inhibition of mTORC2 (Akt phosphorylation) [5]	inhibition of 4E-BP1 phosphorylation [6]
CO[C@@H]1C[C@H](C[C@@H](C)[C@@H]2CC(=O)[C@H](C)/C=C(\C)[C@@H](O)[C@@H](OC)C(=O)[C@H](C)C[C@H](C)/C=C/C=C/C=C(\C)C(OCCCCCO)C[C@@H]3CC[C@@H](C)[C@@](O)(O3)C(=O)C(=O)N3CCCC[C@H]3C(=O)O2)CC[C@H]1O (stereo partly drawn) [I-113, (21E,23E,25E,26E,33R,34S,35R,36R,38S,40S,43S,44R,45R,54R)-44, 54-dihydroxy-43-[(1R)-2-[(1S,3R,4R)-4-hydroxy-3-methoxy-cyclohexyl]-1-methyl-ethyl]-42-(5-hydroxypentoxy)-45-methoxy-33, 34,35,36,46,47-hexamethyl-65,66-dioxa-55-azatricyclohexatriaconta-21, 23,25(46),26(47)-tetraene-48,49,50,51,52-pentone]	0.1 to 1	–	–	YES	strong inhibition	do not inhibit	no inhibition
